Results reported in US10865222B2, “Neisseria gonorrhoeae therapeutic based on CMP-nonulosonate sugars” (priority 2014, dated 2020).
“Also recorded” adds a separate entry of the source.

How the values were obtained:
[1] = target: T1, gonococcal LOS sialyltransferase (Lst) (Neisseria gonorrhoeae, UniProt P72074); type: cell-based, N. gonorrhoeae; conditions: CMP salt 30 μM (20 μg/ml), 2 h at 37° C.
T1 construct: served as substrates for gonococcal Lst in the context of live bacteria; endogenous in cells; host or cells: N. gonorrhoeae F62 ΔlgtD (live bacteria)
Method: FIG. 1. Substrate specificity of gonococcal LOS sialyltransferase (Lst) N. gonorrhoeae strain F62 ΔIgtD was grown in standard gonococcal liquid media alone (‘No sialic acid’) or in media supplemented with CMP salts of the indicated sialic acid or nonulosonic acid, each at a concentration of 20 μg/ml (˜30 μM), for 2 h at 37° C. Bacteria were washed, pellets treated with protease K, lysed in 4×LDS buffer and lysates were separated on 12% Bis-Tris gels using MES running buffer. LOS was transferred to a PVDF membrane and probed with mAb 3F11 that recognizes the lacto-N-neotetraose only in the non-sialylated state; the addition of a sialic acid or nonulosonate residue abrogates mAb 3F11 binding (upper panel). LOS was also visualized by silver staining (middle panel). Sialylation or nonulosonate (NulO) modification was also quantified using whole cell ELISA with mAb 3F11 (lower graph).
To define the substrate specificity of gonococcal LOS sialyltransferase, N. gonorrhoeae F62 ΔIgtD was grown in media alone, or media that contained the CMP-activated derivatives of 7 nonulosonates (listed in Table 1), each at a concentration of 30 μM (20 μg/ml). Following incubation for 2 h at 37° C., bacteria were washed, lysed with protease K/LDS sample buffer and separated on 12% Bis-tris gels. Blots were probed with mAb 3F11, which binds to the terminal lactosamine residue of lacto-N-neotetraose (LNT); any extension beyond the terminal Gal (in this instance with a nonose) would abrogate 3F11 binding. […] Whole cell ELISA with mAb 3F11 confirmed results of western blotting (FIG. 1, lower graph).
Bacteria (F62 ΔIgtD) grown overnight on chocolate agar plates were suspended in gonococcal liquid media supplemented with IsoVitaleX (11) that contained specified concentrations of the CMP-nonulosonate. Bacteria were then incubated at 37° C. for the period specified in each experiment.
Gonococcal lysates treated with protease K (100 μg/ml) and NuPAGE® LDS Sample Buffer (4×) (Invitrogen) were separated on NuPAGE® 12% Bis-Tris (Invitrogen) gels using Novex® MES running buffer (Invitrogen) followed by sliver staining with the Bio-Rad Silver Stain Kit, or were transferred to an Immobilon PVDF membrane (Millipore). Membranes were blocked with PBS/1% milk and probed with tissue culture supernatants that contained mAb 3F11. mAb 3F11-reactive LOS bands were disclosed with anti-mouse IgM conjugated to alkaline phosphatase followed by the addition of BCIP®/NBT-Purple Liquid Substrate (Sigma).

N. gonorrhoeae F62 ΔIgtD [2] = type: cell-based
Method: FIG. 2. […] N. gonorrhoeae F62 ΔIgtD was grown in media alone (no CMP-sialic acid added), or media that contained 20 μg/ml (˜30 μM) of each of the indicated CMP-nonulosonates. Resistance of bacteria to complement-dependent killing in the presence of 3.3%, 6.7% or 10% normal human serum (NHS) was measured in serum bactericidal assays.
FIG. 5. […] N. gonorrhoeae F62 ΔIgtD was suspended in media containing 20 μg/ml (˜30 μM) CMP-Neu5Ac. Following 15 min of incubation at 37° C., CMP-Neu5Ac9Az or CMP-Leg5Ac7Ac (at concentrations of 20, 2 or 0.2 μg/ml final) were added and bacteria were incubated for 2 h. Serum bactericidal assays were then performed using 3.3% (solid black bars) or 10% (hatched bars) NHS. Controls included bacteria in media that lacked any CMP-nonulosonate, or bacteria that were incubated in CMP-Neu5Ac only. Y-axis, % survival.
We next determined the effects of incorporation of the CMP salts of five structural analogues of Neu5Ac (Neu5Gc, Neu5Ac9Ac, Neu5Ac9Az, Neu5Gc8Me and Leg5Ac7Ac) on the ability of N. gonorrhoeae F62 ΔIgtD to resist complement-dependent killing by normal human serum at concentrations of 10, 6.7 or 3.3%. Bacteria were grown either in media alone, or media supplemented with 30 μM (˜20 μg/ml) of each of the CMP-nonulosonates.
The ability of two of the CMP-nonulosonates, CMP-Neu5Ac9Az and CMP-Leg5Ac7Ac, to counter the ability of CMP-Neu5Ac to enhance serum resistance of N. gonorrrhoeae was then examined. The analogues were added at concentrations of 20, 2 or 0.2 μg/ml to growth media 15 min after the addition of CMP-Neu5Ac (20 μg/ml) to F62 ΔIgtD.
Serum bactericidal assays were performed as described previously (11). Bacteria harvested from an overnight culture on chocolate agar plates were grown in liquid media containing the specified concentration of CMP-nonulosonate as specified for each experiment. Approximately 2000 CFU of F62 ΔIgtD were incubated with NHS (concentration specified for each experiment). The final reaction volumes were maintained at 150 μl. […]

N. gonorrhoeae F62 ΔIgtD [3] = assay: Flow cytometry for factor H binding to bacteria; type: cell-based
Method: FIG. 3. Effects of LOS modification with various nonulosonate analogues on fH binding to N. gonorrhoeae. N. gonorrhoeae F62 ΔIgtD was grown in media alone, or media supplemented with 20 μg/ml (˜30 μM) of each of the indicated CMP-nonulosonates. Binding of bacteria to fH (10 μg/ml) was measured by flow cytometry using polyclonal goat anti-human fH. The control indicates reaction mixtures that lacked fH. Y-axis, median fluorescence of fH binding. The mean (SD) of 2 independent repeats is shown.
FIG. 7. […] A. N. gonorrhoeae F62 ΔIgtD was incubated in media containing CMP-Neu5Ac (20 μg/ml), followed […] by the addition of either CMP-Neu5Ac9Az or CMP-Leg5Ac7Ac (20, 2 or 0.2 μg/ml). Bacteria were grown for 2 h and fH binding detected by FACS using polyclonal goat anti-human fH. The Y-axis represents median fluorescence. The mean (SEM) of two independent observations is shown. B. Development of serum resistance lags behind fH binding when measured as a function of time of exposure of bacteria to CMP-Neu5Ac. CMP-Neu5Ac (20 μg/ml) was added to media containing F62 ΔIgtD and bacteria were taken at the time points indicated on the X-axis and assayed for fH binding by FACS with anti-fH mAb 90× (left Y-axis; median fluorescence (SEM)), or tested for its ability to resist killing by 10% NHS (right Y-axis; percent survival). The data represent 2-3 independent experiments. C. Representative histograms of a fH binding FACS experiment.
The addition of a terminal Neu5Ac residue to LNT-expressing LOS enhances binding of the alternative pathway inhibitor, factor H, which contributes to the ability of sialylated gonococci to resist killing by complement (7). fH binding to N. gonorrhoeae F62 ΔIgtD grown in the presence of each of the CMP-nonulosonates (20 μg/ml or 30 μM) was examined (FIG. 3). […] Reducing the CMP-nonulosonate concentrations in growth media to 2 μg/ml (3 μM) yielded similar fH binding results (FIG. 9B). Further, modification of LOS with Neu5Ac or Neu5Gc yielded similar amounts of fH binding over CMP-sialic acid concentrations ranging from 0.5 to 4 μg/ml, with near maximal fH binding observed even at the lowest concentration tested (FIG. 9C).
fH binding to bacteria was performed using flow cytometry as described previously (14). Briefly, bacteria (F62 ΔIgtD) were harvested from chocolate agar plates and grown in liquid media that contained the specified concentration of the CMP-nonulosonate as described above. Bacteria were then washed with Hanks Balanced Salt Solution (HBSS) containing 1 mM Ca^2+ and 1 mM Mg^2+ (HBSS^++) and incubated with fH purified from human plasma (Complement Technology, Inc.; concentration specified for each experiment). Bound fH was detected using either anti-fH mAb (Quidel, catalog no. A254 (mAb 90×)) or goat anti-human fH, followed by FITC conjugated anti-mouse IgG or anti-goat IgG, respectively (Sigma); both Abs had similar performance characteristics. All reaction mixtures were carried out in HBSS^++/1% BSA in a final volume of 50 μl. Flow cytometry was performed using a FACSCalibur instrument (Becton Dickinson) and data were analyzed using FlowJo (version 7.2.5; Tree Star, Inc.).

T1 sequence (P72074 whole entry): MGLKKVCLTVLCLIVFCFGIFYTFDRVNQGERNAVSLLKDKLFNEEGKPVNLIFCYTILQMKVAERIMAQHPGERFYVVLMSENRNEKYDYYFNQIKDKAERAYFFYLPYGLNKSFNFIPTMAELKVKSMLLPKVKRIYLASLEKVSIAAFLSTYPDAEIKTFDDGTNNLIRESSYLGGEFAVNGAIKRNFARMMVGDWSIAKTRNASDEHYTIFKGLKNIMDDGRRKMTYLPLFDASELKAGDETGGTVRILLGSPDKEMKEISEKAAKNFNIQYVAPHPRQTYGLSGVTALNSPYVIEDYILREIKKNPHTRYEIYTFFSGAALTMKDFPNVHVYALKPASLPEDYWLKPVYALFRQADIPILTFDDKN

Nc1ccn([C@@H]2O[C@H](COP(=O)(O)O[C@@]3(C(=O)O)C[C@H](O)[C@@H](NC(=O)CO)[C@H]([C@H](O)[C@H](O)CO)O3)[C@@H](O)[C@H]2O)c(=O)n1 [CMP-Neu5Gc, CMP-5-hydroxyacetamido-3,5-dideoxy-D-glycero-D-galacto-nonulosonic acid, reference compound]
mAb 3F11 binding / incorporation of nonulosonate onto LNT LOS (use as Lst substrate) [1]: decreased binding of mAb 3F11
resistance to 10% serum (N. gonorrhoeae F62 ΔIgtD [2]; CMP-nonulosonate 3 μM (~2 μg/ml), 10% serum): conferred resistance
Serum resistance (N. gonorrhoeae F62 ΔIgtD [2]; summary Table 1): high (>100% survival in 10% serum)
fH binding (N. gonorrhoeae F62 ΔIgtD [3]; CMP-nonulosonate 20 μg/ml or 30 μM, vs unsialylated F62 ΔIgtD): Maximal
fH binding (N. gonorrhoeae F62 ΔIgtD [3]; CMP-sialic acid 0.5 to 4 μg/ml, lowest concentration tested): near maximal
fH binding (N. gonorrhoeae F62 ΔIgtD [3]; summary Table 1): high

CC(=O)N[C@H]([C@@H]1O[C@](OP(=O)(O)OC[C@H]2O[C@@H](n3ccc(N)nc3=O)[C@H](O)[C@@H]2O)(C(=O)O)C[C@H](O)[C@@H]1NC(C)=O)[C@H](C)O [CMP-Pse5Ac7Ac, reference compound]
mAb 3F11 binding / incorporation of nonulosonate onto LNT LOS (use as Lst substrate) [1]: not incorporated; also recorded: not utilized
bacterial survival / serum resistance (N. gonorrhoeae F62 ΔIgtD [2]; all serum concentrations tested (10, 6.7, 3.3%), 30 μM): did not affect serum resistance
